PubChem BioAssay AID1259246 (Broad Institute, 2017)
Inconclusive results are not listed. Activity calls are given as the source filed them.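 The calls were made as follows: active = valid dose-response fit whose half-maximal growth-inhibiting concentration is at or below a set limit above the top tested dose; inconclusive = flat fit with effect between 30 and 70%, or poor fit; inactive = half-maximal concentration above a set limit.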

Experiment: antibacterial activity against Clostridioides difficile – 10-point retest, dose response (AID 1259246)
Details: Clostridioides difficile clinical isolate growth, OD600, 24 h

| Compound | activity change, negative = inhibition (at 120 µM (top of the series)) | also measured |
| --- | --- | --- |
| C[C@@H]1CN([C@H](C)CO)C(=O)Cc2cc(NC(=O)CCCN(C)C)ccc2O[C@@H]1CN(C)Cc1ccc(-c2ccccc2)cc1 | – | activity change, negative = inhibition (at 60 µM (top of the series)): 28.6% (inactive) |
| C[C@H](CO)N1C[C@H](C)[C@@H](CN(C)Cc2ccc(Oc3ccccc3)cc2)Oc2ccc(NC(=O)C3CC3)cc2CC1=O | 33.9% (inactive) | – |
| C[C@H](CO)N1C[C@H](C)[C@@H](CN(C)C(=O)Nc2ccccc2)OCCCC[C@H](C)Oc2ccc(NC(=O)Nc3cccc4ccccc34)cc2C1=O | 20.2% (inactive) | – |
| CCCC#Cc1ccc2c(c1)O[C@H](CN(C)Cc1ccc3c(c1)OCO3)[C@H](C)CN([C@H](C)CO)S2(=O)=O | 33% (inactive) | – |
| O=C(C[C@H]1C[C@@H]2c3cc(NC(=O)C4CCC4)ccc3O[C@@H]2[C@@H](CO)O1)NCc1ccc(Cl)cc1 | -11.8% (inactive) | – |
| COc1ccc(CN(C)C[C@H]2Oc3ccc(NC(=O)C4CC4)cc3CC(=O)N([C@H](C)CO)C[C@H]2C)cc1 | – | activity change, negative = inhibition (at 135 µM (top of the series)): 0.998% (inactive) |
| COc1ccc(CNC(=O)C[C@H]2C[C@@H]3c4cc(NC(=O)NC5CCCC5)ccc4O[C@@H]3[C@@H](CO)O2)cc1 | 6.58% (inactive) | – |
| Cc1cc(C(=O)Nc2cccc3c2O[C@H](CN(C)Cc2ccc(-c4ccccc4)cc2)[C@H](C)CN([C@@H](C)CO)C3=O)n(C)n1 | 0.388% (inactive) | – |
| C[C@@H]1CN([C@H](C)CO)C(=O)c2cc(NC(=O)Nc3cccc4ccccc34)ccc2O[C@@H](C)CCCCO[C@H]1CN(C)C(=O)c1ccccc1 | – | activity change, negative = inhibition (at 135 µM (top of the series)): 14.9% (inactive) |
| C[C@H](CO)N1C[C@H](C)[C@@H](CN(C)Cc2ccc(-c3ccccc3)cc2)Oc2ccc(NC(=O)C3CC3)cc2CC1=O | 25.6% (inactive) | – |
| CO[C@@H]1CN(C)C(=O)c2ccc(NC(=O)c3nc4ccccc4s3)cc2OC[C@@H](C)NC[C@H]1C | -7.73% (inactive) | – |
| CO[C@H]1CN(C)C(=O)c2ccc(NC(=O)c3nc4ccccc4s3)cc2OC[C@@H](C)N(Cc2ccncc2)C[C@H]1C | 20.7% (inactive) | – |
| C[C@@H]1CN([C@@H](C)CO)C(=O)Cc2cc(NC(=O)CCCN(C)C)ccc2O[C@H]1CN(C)Cc1ccncc1 | -4.05% (inactive) | – |
| C[C@H]1CN([C@@H](C)CO)C(=O)c2cccc(NC(=O)Nc3ccccc3)c2O[C@@H]1CN(C)Cc1ccc(Oc2ccccc2)cc1 | 27.9% (inactive) | – |
| CO[C@H]1CN(C)C(=O)c2ccc(NC(=O)C3CCC3)cc2OC[C@H](C)N(Cc2ccncc2)C[C@@H]1C | -5.3% (inactive) | – |
| CNC[C@H]1Oc2cc(C#CCC(C)C)ccc2S(=O)(=O)N([C@H](C)CO)C[C@@H]1C | 19.7% (inactive) | – |
| CO[C@@H]1CN(C)C(=O)c2ccc(NC(=O)c3ccc(-c4ccccc4)cc3)cc2OC[C@H](C)NC[C@H]1C | 8.57% (inactive) | – |
| C[C@H](CO)N1C[C@H](C)[C@@H](CN(C)Cc2ccc3c(c2)OCO3)Oc2c(NC(=O)Nc3ccc(C(F)(F)F)cc3)cccc2C1=O | 28.9% (inactive) | – |
| C[C@@H]1CN([C@@H](C)CO)C(=O)Cc2cc(NC(=O)Nc3ccccc3)ccc2O[C@@H]1CN(C)Cc1ccc(-c2ccccc2)cc1 | – | activity change, negative = inhibition (at 135 µM (top of the series)): 23.5% (inactive) |
| C[C@@H]1CN([C@@H](C)CO)C(=O)Cc2cc(NC(=O)CCCN(C)C)ccc2O[C@H]1CN(C)C | – | activity change, negative = inhibition (at 135 µM (top of the series)): -6.21% (inactive) |

| Compound | activity change, negative = inhibition (at 120 µM (top of the series)) | also measured |
| --- | --- | --- |
| C[C@H]1CN([C@@H](C)CO)S(=O)(=O)c2ccc(Br)cc2O[C@@H]1CN(C)Cc1cccnc1 | -0.003% (inactive) | – |
| C[C@@H]1CN([C@H](C)CO)C(=O)c2cc(NC(=O)Nc3ccc4c(c3)OCO4)ccc2O[C@H]1CN(C)Cc1ccccc1 | – | activity change, negative = inhibition (at 135 µM (top of the series)): -5.34% (inactive) |
| C[C@@H]1CCCCO[C@H](CN(C)C(=O)CCC(F)(F)F)[C@H](C)CN([C@@H](C)CO)C(=O)c2cc(NC(=O)c3ccncc3)ccc2O1 | 14.3% (inactive) | – |
| C[C@@H]1CN([C@H](C)CO)C(=O)c2cccc(NC(=O)Nc3ccc(C(F)(F)F)cc3)c2O[C@@H]1CN(C)S(=O)(=O)c1ccc(Cl)cc1 | 46.7% (inactive) | – |
| COc1ccc(NC(=O)Nc2cccc3c2O[C@@H](CN(C)Cc2ccc(Oc4ccccc4)cc2)[C@@H](C)CN([C@H](C)CO)C3=O)cc1 | 38.3% (inactive) | – |
| C[C@H](CO)N1C[C@H](C)[C@@H](CN(C)Cc2ccc(-c3ccccc3)cc2)Oc2c(NC(=O)Nc3ccc(C(F)(F)F)cc3)cccc2C1=O | 12.2% (inactive) | – |
| Cc1ccc(S(=O)(=O)N[C@H]2CC[C@H](CCNC(=O)Cc3ccccn3)O[C@H]2CO)cc1 | -0.997% (inactive) | – |
| CO[C@@H]1CN(C)C(=O)c2ccc(NC(=O)c3ccc(-c4ccccc4)cc3)cc2OC[C@H](C)NC[C@@H]1C | 17% (inactive) | – |
| Cc1ccc(S(=O)(=O)N[C@H]2CC[C@H](CCNS(=O)(=O)Cc3ccccc3)O[C@H]2CO)cc1 | -4.09% (inactive) | – |
| C[C@@H]1CN([C@@H](C)CO)C(=O)Cc2cc(NC(=O)C3CC3)ccc2O[C@@H]1CN(C)Cc1ccc(Oc2ccccc2)cc1 | 21.3% (inactive) | – |
| COc1ccc(CN2C[C@H](C)[C@@H](OC)CN(C)C(=O)c3ccc(NC(=O)c4nc5ccccc5s4)cc3OC[C@@H]2C)cc1 | 9.23% (inactive) | – |
| C[C@H]1CN([C@@H](C)CO)C(=O)c2cccc(NC(=O)Nc3ccccc3)c2O[C@H]1CN(C)Cc1ccc(Oc2ccccc2)cc1 | 24.3% (inactive) | – |
| C[C@@H]1CN([C@H](C)CO)C(=O)Cc2cc(NC(=O)C3CC3)ccc2O[C@@H]1CN(C)Cc1ccc(C(F)(F)F)cc1 | – | activity change, negative = inhibition (at 135 µM (top of the series)): 18% (inactive) |
| C[C@@H]1CN([C@H](C)CO)S(=O)(=O)c2ccc(C#CCN(C)C)cc2O[C@@H]1CN(C)Cc1ccc(F)cc1 | 0.874% (inactive) | – |
| O=C(C[C@@H]1CC[C@H]2[C@@H](COC[C@H](O)CN2S(=O)(=O)c2ccc(Cl)cc2)O1)NCc1ccc(Cl)c(Cl)c1 | – | activity change, negative = inhibition (at 110 µM (top of the series)): 55.9% (inactive) |
| C[C@@H]1CN([C@@H](C)CO)S(=O)(=O)c2ccc(C#Cc3ccccc3F)cc2O[C@@H]1CN(C)CC1CCOCC1 | – | activity change, negative = inhibition (at 60 µM (top of the series)): 3.46% (inactive) |
| CNC[C@@H]1Oc2ccc(NC(=O)CCCN(C)C)cc2CC(=O)N([C@H](C)CO)C[C@H]1C | 2.33% (inactive) | – |
| COc1ccccc1CNC(=O)C[C@@H]1C[C@@H]2c3cc(NC(=O)NC4CCCC4)ccc3O[C@@H]2[C@@H](CO)O1 | 2.23% (inactive) | – |
| C[C@@H]1CN([C@@H](C)CO)C(=O)c2cc(NC(=O)NC3CCCCC3)ccc2O[C@@H]1CN(C)C(=O)Nc1ccc(F)cc1 | 58.5% (inactive) | – |
| COc1ccc(NC(=O)N(C)C[C@H]2Oc3ccc(NC(=O)C4CC4)cc3CC(=O)N([C@H](C)CO)C[C@H]2C)cc1 | -3.71% (inactive) | – |

| Compound | activity change, negative = inhibition (at 120 µM (top of the series)) | also measured |
| --- | --- | --- |
| C[C@@H]1CN([C@@H](C)CO)C(=O)Cc2cc(NC(=O)CCC(F)(F)F)ccc2O[C@H]1CN(C)Cc1ccc(-c2ccccc2)cc1 | 37.3% (inactive) | – |
| C[C@H]1CN([C@@H](C)CO)C(=O)c2cccc(NC(=O)Nc3ccc(C(F)(F)F)cc3)c2O[C@@H]1CN(C)Cc1ccc2c(c1)OCO2 | 34.1% (inactive) | – |
| C[C@@H]1CN([C@H](C)CO)C(=O)Cc2cc(N(C)C)ccc2O[C@@H]1CN(C)Cc1ccc(-c2ccccc2)cc1 | 22.5% (inactive) | – |
| N#C[C@H]1[C@H](c2ccc(C#Cc3ccccc3F)cc2)[C@@H](CO)N1C(=O)C1CCCCC1 | 24.9% (inactive) | – |
| C[C@H](CO)N1C[C@H](C)[C@@H](CN(C)S(C)(=O)=O)OCCCC[C@H](C)Oc2ccc(NC(=O)Nc3cccc4ccccc34)cc2C1=O | – | activity change, negative = inhibition (at 60 µM (top of the series)): 9.57% (inactive) |
| C[C@@H]1CN([C@@H](C)CO)C(=O)c2cc(NC(=O)Nc3cccc4ccccc34)ccc2O[C@@H](C)CCCCO[C@H]1CN(C)S(=O)(=O)c1ccc(F)cc1 | 34.1% (inactive) | – |
| COc1ccc(CN(C)C[C@@H]2OCCCC[C@H](C)Oc3ccc(NC(=O)Nc4cccc5ccccc45)cc3C(=O)N([C@@H](C)CO)C[C@H]2C)cc1 | 42% (inactive) | – |
| CNC[C@@H]1Oc2cc(-c3ccc(C)cc3)ccc2S(=O)(=O)N([C@@H](C)CO)C[C@H]1C | 10.7% (inactive) | – |
| O=C(C[C@H]1C[C@H]2c3cc(NC(=O)C4CCC4)ccc3O[C@H]2[C@@H](CO)O1)NCc1ccc(Cl)cc1 | 2.85% (inactive) | – |
| CO[C@H]1CN(C)C(=O)c2cc(NC(=O)c3ccc(-c4ccccc4)cc3)ccc2OC[C@@H](C)NC[C@@H]1C | 30.6% (inactive) | – |
| C[C@@H]1CN([C@@H](C)CO)S(=O)(=O)c2ccc(/C=C/c3ccccc3)cc2O[C@H]1CN(C)C(=O)c1ccncc1 | 14.4% (inactive) | – |
| CO[C@H]1CN(C)C(=O)c2cc(NS(=O)(=O)c3ccc(-c4ccccc4)cc3)ccc2OC[C@H](C)NC[C@H]1C | – | activity change, negative = inhibition (at 135 µM (top of the series)): 10.6% (inactive) |
| COc1ccccc1-c1ccc2c(c1)O[C@H](CN(C)Cc1ccc3c(c1)OCO3)[C@H](C)CN([C@@H](C)CO)S2(=O)=O | 31.6% (inactive) | – |
| O=C(C[C@H]1C[C@@H]2c3cc(NC(=O)Nc4ccc(F)cc4)ccc3O[C@@H]2[C@H](CO)O1)NC1CCCCC1 | – | activity change, negative = inhibition (at 135 µM (top of the series)): -1.13% (inactive) |
| C[C@@H]1CCCCO[C@@H](CN(C)S(=O)(=O)c2ccc(F)cc2)[C@@H](C)CN([C@H](C)CO)C(=O)c2cc(NC(=O)Nc3cccc4ccccc34)ccc2O1 | – | activity change, negative = inhibition (at 135 µM (top of the series)): 14.6% (inactive) |
| CC(C)CC#Cc1ccc2c(c1)O[C@H](CN(C)Cc1ccc(F)cc1)[C@H](C)CN([C@@H](C)CO)S2(=O)=O | 34.5% (inactive) | – |
| CO[C@H]1CN(C)C(=O)c2cc(NC(=O)c3ccc(-c4ccccc4)cc3)ccc2OC[C@H](C)NC[C@@H]1C | – | activity change, negative = inhibition (at 135 µM (top of the series)): 34.1% (inactive) |
| N#C[C@@H]1[C@@H](c2ccc(C#Cc3cccnc3)cc2)[C@@H](CO)N1C(=O)C1CCCCC1 | – | activity change, negative = inhibition (at 60 µM (top of the series)): 1.92% (inactive) |
